Test results: patent US8133910B2, “Thiophene derivatives as S1P1/EDGE1 receptor agonists” (Actelion Pharmaceuticals Ltd., priority 2006, dated 2012)

Assays:
circulating lymphocytes = assay: Assessment of in vivo efficacy: circulating lymphocytes after oral administration; details: 6 h after oral administration of 10 mg/kg to normotensive male Wistar rats, as compared to vehicle group; mean±SEM
Procedure: The efficacy of the compounds of Formula (I) is assessed by measuring the circulating lymphocytes after oral administration of 3 to 30 mg/kg of a compound of Formula (I) to normotensive male Wistar rats. The animals are housed in climate-controlled conditions with a 12 h-light/dark cycle, and have free access to normal rat chow and drinking water. Blood is collected before and 3, 6 and 24 h after drug administration. Full blood is subjected to hematology using Advia Hematology system (Bayer Diagnostics, Zürich, Switzerland).
All data are presented as mean±SEM. Statistical analyses are performed by analysis of variance (ANOVA) using Statistica (StatSoft) and the Student-Newman-Keuls procedure for multiple comparisons. The null hypothesis is rejected when p<0.05.

[1] = target: recombinant human S1P1 receptor (Homo sapiens, UniProt P21453); assay: GTPγS assay to determine EC50 values; type: biochemical; details: 35S-GTPγS binding, membrane preparations of CHO cells expressing recombinant human S1P1 receptor, pH 7.4
Procedure: GTPγS binding assays are performed in 96 well microtiter plates (Nunc, 442587) in a final volume of 200 μl, using membrane preparations of CHO cells expressing recombinant human S1P1 receptor. Assay conditions are 20 mM Hepes (Fluka, 54461), 100 mM NaCl (Fluka, 71378), 5 mM MgCl2 (Fluka, 63064), 0.1% BSA (Calbiochem, 126609), 1 μM GDP (Sigma, G-7127), 2.5% DMSO (Fluka, 41644), 50 pM ^35S-GTPγS (Amersham Biosciences, SJ1320). The pH is 7.4. Test compounds are dissolved and diluted in 100% DMSO and pre-incubated at room temperature for 30 min in 150 μl of the above assay buffer, in the absence of ^35S-GTPγS. After addition of 50 μl of ^35S-GTPγS, the assay is incubated for 1 h at rt. The assay is terminated by transfer of the reaction mixture to a Multiscreen plate (Millipore, MAHFC1H60) using a cell harvester from Packard Biosciences, and the plates are washed with ice-cold 10 mM Na2HPO4/NaH2PO4 (70%/30%), dried, sealed at the bottom and, after addition of 25 μl MicroScint20 (Packard Biosciences, order #6013621), sealed on the top. Membrane-bound ^35S-GTPγS is measured with a TopCount from Packard Biosciences.
EC50 is the concentration of agonist inducing 50% of the maximal specific ^35S-GTPγS binding. Specific binding is determined by subtracting non-specific binding from maximal binding. Maximal binding is the amount of cpm bound to the
Multiscreen plate in the presence of 10 μM of S1P. Non-specific binding is the amount of binding in the absence of an agonist in the assay.

Chain of recombinant human S1P1 receptor (P21453 whole entry): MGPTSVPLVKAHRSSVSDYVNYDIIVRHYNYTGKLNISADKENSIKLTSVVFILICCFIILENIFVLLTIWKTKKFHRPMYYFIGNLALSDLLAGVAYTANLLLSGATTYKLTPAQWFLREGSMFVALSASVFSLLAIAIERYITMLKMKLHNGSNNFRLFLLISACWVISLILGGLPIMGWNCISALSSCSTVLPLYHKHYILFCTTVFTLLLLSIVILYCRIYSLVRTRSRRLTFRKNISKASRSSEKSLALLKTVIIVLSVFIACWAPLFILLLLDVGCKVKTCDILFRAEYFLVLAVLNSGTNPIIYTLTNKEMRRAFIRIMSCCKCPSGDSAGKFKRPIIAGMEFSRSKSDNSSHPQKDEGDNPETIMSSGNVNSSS

| SMILES | EC50 [1] [nM] | Lymphocyte counts (circulating lymphocytes) [%] |
| --- | --- | --- |
| CCc1cc(-c2nnc(-c3ccc(CC(C)C)s3)o2)cc(C)c1OC[C@@H](O)CNC(=O)CO [Example 37, N-((2S)-3-{2-Ethyl-6-methyl-4-[5-(5-isobutyl-thiophen-2-yl)-[1,3,4]oxadiazol-2-yl]-phenoxy}-2-hydroxy-propyl)-2-hydroxy-acetamide] |  | −67 ± 3 |
| Cc1cc(-c2nnc(-c3ccc(CC(C)C)s3)o2)cc(C)c1OCC(O)CNC(=O)CO (stereo not drawn) [Example 22, 2-hydroxy-N-(2-hydroxy-3-{4-[5-(5-isobutyl-thiophen-2-yl)-[1,3,4]oxadiazol-2-yl]-2,6-dimethyl-phenoxy}-propyl)-acetamide] | 2.8 |  |
| CCc1cc(-c2nnc(-c3cc(C)c(CC(C)C)s3)o2)cc(C)c1OC[C@@H](O)CO [Example 40, (2S)-3-{2-Ethyl-4-[5-(5-isobutyl-4-methyl-thiophen-2-yl)-[1,3,4]oxadiazol-2-yl]-6-methyl-phenoxy}-propane-1,2-diol] |  | −58 ± 3 |
| Cc1cc(-c2nnc(-c3ccc(CC(C)C)s3)o2)cc(C)c1OC[C@@H](O)CNC(=O)CO [Example 31, 2-hydroxy-N-((2S)-2-hydroxy-3-{4-[5-(5-isobutyl-thiophen-2-yl)-[1,3,4]oxadiazol-2-yl]-2,6-dimethyl-phenoxy}-propyl)-acetamide] | 3.3 |  |

Further lines, with some results ahead:

| EC50 [1] [nM] | SMILES | Lymphocyte counts (circulating lymphocytes) [%] |
| --- | --- | --- |
| 0.6 | CCCc1ccc(-c2nc(-c3cc(C)c(OC[C@H](O)CNC(=O)CO)c(C)c3)no2)s1 [Example 17, (2R)—N-(3-{2,6-Dimethyl-4-[5-(5-propyl-thiophen-2-yl)-[1,2,4]oxadiazol-3-yl]-phenoxy}-2-hydroxy-propyl)-2-hydroxy-acetamide] | −59. ± 4 |
| 0.6 | CCc1cc(-c2nnc(-c3cc(C)c(CC(C)C)s3)o2)cc(C)c1OC[C@@H](O)CNC(=O)CO [Example 42, N-((2S)-3-{2-Ethyl-4-[5-(5-isobutyl-4-methyl-thiophen-2-yl)-[1,3,4]oxadiazol-2-yl]-6-methyl-phenoxy}-2-hydroxy-propyl)-2-hydroxy-acetamide] |  |
| 2.4 | CCCc1ccc(-c2nc(-c3cc(C)c(OC[C@@H](O)CNC(=O)CO)c(CC)c3)no2)s1 [Example 28, (2S)—N-(3-{2-Ethyl-6-methyl-4-[5-(5-propyl-thiophen-2-yl)-[1,2,4]oxadiazol-3-yl]-phenoxy}-2-hydroxy-propyl)-2-hydroxy-acetamide] |  |
| 2.6 | Cc1cc(-c2noc(-c3ccc(CC(C)C)s3)n2)cc(C)c1OCC(O)CNC(=O)CO (stereo not drawn) [Example 16] |  |
